Test results reported in patent US11667946B2, “Detection of beta-hemolytic pathogens” (TEMASEK LIFE SCIENCES LABORATORY LIMITED, priority 2016, dated 2023).

Experiments:
[1] = tested on: a variety of bacteria; assay: Culturing bacteria on BHI agar with free H33342; format: cell-based; details: 160 nM
Protocol: (§1) Uptake of free H33342 by bacteria: The uptake of free H33342 was investigated by repeating the experiment as above but replacing liposomal H33342 with free H33342 dye (final concentration, 160 nM). Sodium hexametaphosphate (305553, Sigma-Aldrich) was added to a concentration of up to 0.3% for membrane permeabilization experiments.

[2] = tested on: gram-negative bacteria; assay: Uptake of free H33342 by bacteria on BHI agar; format: cell-based
Protocol: as §1

[3] = tested on: gram-positive bacteria; assay: Uptake of free H33342 by bacteria on BHI agar; format: cell-based; details: 160 nM, overnight
Protocol: as §1

[4] = tested on: S. pyogenes; assay: Membrane permeabilization with sodium hexametaphosphate (H33342 uptake); format: cell-based, Streptococcus pyogenes; details: at 0.3%
Protocol: as §1

[5] = tested on: E. coli; assay: as above; format: cell-based, Escherichia coli; details: H33342 agar with sodium hexametaphosphate
Protocol: as §1

Compound	lethality to bacteria [1]	uptake of dye [2]	colony association with / uptake of free dye [3]	lethality to bacterium [4]	increase of colony fluorescence [5]
CCOc1ccc(-c2nc3ccc(-c4nc5ccc(N6CCN(C)CC6)cc5[nH]4)cc3[nH]2)cc1 [H33342, Hoechst 33342]	non-lethal	not taken up	fluoresce blue	–	–
O=P1([O-])OP(=O)([O-])OP(=O)([O-])OP(=O)([O-])OP(=O)([O-])OP(=O)([O-])O1.[Na+].[Na+].[Na+].[Na+].[Na+].[Na+] [sodium hexametaphosphate]	–	–	–	lethal	80%
